Values of other authors, collected in patent publication US12290596B2, “Compositions and methods for the treatment of opioid overdose” (priority 2021, dated 2025).

Settings: intranasal formulation with […] Intravail; cited from earlier work

CNS(=O)(=O)Cc1ccc2[nH]cc(CCN(C)C)c2c1 [sumatriptan]
Increase of maximum plasma concentration in comparison to Imitrex nasal spray: almost four-fold | Increase of total exposure (AUC): 32% | Tmax: 8 to 10 min
